Source: US20260234634A1, “UNG/UDG INHIBITION IN BRCA-ASSOCIATED CANCER” (INSTITUT CURIE, priority 2023, published 2026)

What was measured:
Type in all cases: cell-based
WT RPE-1 cells = assay: 12-day clonogenic survival assay, WT cells; details: for IC50: calculated IC50, WT cells
Description: (§1) a. Top, Immunoblot profiling of WT and NMNAT1^−/− RPE-1 cells for the indicated proteins. Bands corresponding to UNG1 (lower MW) and UNG2 (higher MW) are indicated. […] Cells were treated for 24 hours with the indicated doses of FdUrd, with and without 5 μM TAS-114. Bottom, Cell cycle distribution of WT (+/+) and NMNAT1^−/− (−/−) RPE-1 cells treated as in (top) (n=2). b. Quantification of gDNA-uracil and DNA breaks by modified comet assay with (right) and without (left) recombinant UNG (rUNG) respectively, in WT RPE-1 cells upon 24-hour FdUrd treatment with and without 5 μM TAS-114. Results are shown as tail moment. At least 80 comets per condition was measured using CometScore. […] The enzymes involved are indicated in bold and italic. Bottom, Immunoblot profiling of NMNAT1, ADP-ribosylation (PAR) and PARP1 (short and long exposures) in WT and NMNAT1^−/− cells complemented or not with wild type (WT) or catalytically-dead mutant (MUT) NMNAT1 (W169A). PARP1 was detected after membrane stripping of the anti-ADP ribosylation antibody. Cells were treated or not with PDD 00017273 (PARGi, 10 μM) for 2 hours and 10 mM MMS was added the last 10 minutes before cell lysis. Vinculin was used as loading control. d. Quantification of the 12-day clonogenic survival assay of the same cells as in (c, bottom) treated or not with the indicated doses of rucaparib (PARPi) for the duration of the experiment (n=3). e. Quantification of the 12-day clonogenic survival assay in WT (black) and NMNAT1^−/− (red) cells following exposure to the indicated doses of the indicated DNA-damaging drugs (n=3). f. Quantification of the 12-day clonogenic survival assay in WT, NMNAT1^−/−, and UNG^−/− cells following 24-hour exposure to the indicated doses of FdUrd with or without 5 μM TAS-114 (n=3). g. Quantification of the 12-day clonogenic survival assay in WT (black), NMNAT1^−/−, and UNG^−/− cells following 24-hour exposure to the indicated doses of TAS-114. (n=3). For WT cells, data are the same as in (FIG. 14c). h. Top, RT-qPCR quantification of DUT mRNA levels following 72-hour transfection of WT RPE-1 cells with DUT siRNA (siDUT) or relative control (siCTRL). Results are represented as fold change over siCTRL. (Bottom), Quantification of the 12-day clonogenic survival assay in WT (left), NMNAT1^−/− (middle), and UNG^−/− (right) cells following transfection with DUT siRNA and relative control (siCTRL). Data were expressed as a percentage (mean±s.e.m.) of colonies formed in each cell line relative to the appropriate siCTRL (n=3). i. Quantification of gDNA-uracil and DNA breaks as in (b) in WT and NMNAT1^−/− cells upon 0.08 μM FdUrd treatment with and without 5 μM TAS-114 for 24 hours.
(§2) To investigate the mechanism underlying the interplay between UNG and SMUG1, the inventors investigated the role of nuclear NAD^+ (nicotinamide adenine dinucleotide), a molecule with essential—yet poorly characterized—functions in DNA repair. In the nucleus of mammalian cells NAD^+ is synthesized by NMNAT1 (nicotinamide mononucleotide adenylyltransferase 1) and fuels the activity of PARP1 and sirtuins (FIG. 15c). The inventors generated NMNAT1 knockout (NMNAT1^−/−) RPE-1 cells and evaluated their sensitivity to a panel of DNA damaging agents (Table 1).

NMNAT1−/− RPE-1 cells = assay: 12-day clonogenic survival assay, NMNAT1 knockout cells; details: for IC50: calculated IC50, NMNAT1−/− cells; for sensitivity of NMNAT1−/− cells relative to WT cells: drugs targeting the TS pathway; for Fold change (WT/NMNAT1−/−): ratio of IC50 WT to IC50 NMNAT1−/−
Description: as §1, §2

[1] = tested on: BRCA2−/− RPE-1 cells (clones C1 and C2); assay: Clonogenic formation / survival assay, BRCA2 knockout clones
Description: (§3) FIG. 7. a, Clonogenic formation of wild type (WT) and BRCA2−/− (clones C1 and C2) following exposure to the indicated doses of SIRT6 inhibitor OSS_128167. b, Clonogenic formation of wild type (WT), BRCA2−/− (clones C1 and C2) and BRCA2−/−-derived PARPi-resistant RPE-1 cells following exposure to 0.5 mM SIRT6 inhibitor OSS_128167. c, Clonogenic formation of parental and derived PARPi-resistant CAPAN-1 clones following exposure to the indicated doses of SIRT6 inhibitor OSS_128167. The normal breast epithelial cells MCF10A were included as an HR-proficient cell line.
a. Quantification (top) and representative image (bottom right) of the 12-day clonogenic survival assay in WT and BRCA2^−/− cells following transduction with viral particles carrying either pLentiCRISPRv2 Neo_UNG gRNA (UNG gRNA) or relative control (CTRL gRNA) (n=3). Cells were seeded for clonogenic assay after selection with G418. Bottom left, Immunoblot analysis of UNG after G418 selection. b. […] Right, qPCR-based quantification of UNG activity in the same cell lines as in (left). c. […] Right, immunoblot analysis of UNG in the same samples as in (left). The arrows indicate UNG1 (lower) and UNG2 (upper). Vinculin was used as a loading control. d. […] Left, Quantification (left) and representative images (right) of the 12-day clonogenic survival assay in WT and NMNAT1^−/− cells complemented or not (EV, empty vector) with wild-type (WT) or catalytically-dead mutant (MUT:W169A) NMNAT1 cDNA following transfection with siBRCA2 (n=3). f. Quantification of the 12-day clonogenic survival assay in the HR-deficient cancer cell lines CAPAN1 (BRCA2 mutated) and OVCAR8 (BRCA1 promoter hypermethylation) following transfection with siUNG #7 (n=3). g. Quantification (left) and representative images (right) of the 12-day clonogenic survival assay in a panel of HR-proficient and HR-deficient cancer and normal (MCF10A) cell lines following transfection with siNMNAT1 (n=3).

[2] = tested on: BRCA2−/−-derived PARPi-resistant RPE-1 cells; assay: Clonogenic formation, PARPi-resistant BRCA2 knockout cells; details: 0.5 mM inhibitor
Description: as §3

[3] = tested on: PARPi-resistant CAPAN-1 clones; assay: Clonogenic formation, PARPi-resistant CAPAN-1 clones; details: indicated doses
Description: as §3

MCF10A cells = assay: Clonogenic formation, normal breast epithelial cells; details: same doses as for the CAPAN-1 clones
Description: as §3

[4] = tested on: cells lacking either NMNAT1 or UNG; assay: γH2AX foci formation (DSB) by immunofluorescence; details: 24 h treatment, EdU-positive cells
Description: FIG. 11. Uracil excision is regulated by nuclear NAD^+. a. Quantification of post-replicative ssDNA gaps using DNA fiber assay in P53^−/− RPE-1 cells after 48-hours transfection with the indicated siRNAs. b. Schematic of 2′-deoxyuridine (dUTP)/thymidine (dTTP) biosynthetic pathway. The biological processes involved are in italic. c. Nuclear fractionation and immunoblot profiling of the indicated proteins following 24-hour drug exposure (0.1 μM FdUrd+5 μM TAS-114) of WT and UNG^−/− cells. For the washed-out samples (w.o.), cells were harvested 24 hours after drug removal. Western blot images are representative of three experiments. d. Left, quantification of DNA breaks (left, − rUNG) and gDNA-uracil (right, + rUNG) in wild type (WT) and NMNAT1^−/− cells upon 24-hour FdUrd treatment (20 μM) and the indicated hours after drug washout (w.o.). […] Right, Quantification of UNG protein level captured as in (left) normalized over captured PCNA and H3. f. Quantification of γH2AX foci formation before and after 24 h treatment of WT (grey) and NMNAT1^−/− (orange) cells with the indicated doses of TAS-114 (μM). g. Quantification (left) and representative images (right) of 12-day clonogenic survival assay following transfection with siRNAs and drug treatment of WT and NMNAT1^−/− cells as indicated. […]
a. […] Mass spectrometry-based quantification of the indicated metabolites (n=3). c. […]

Q: Which IC50 (WT RPE-1 cells) does the source give for `CN(Cc1cnc2nc(N)nc(N)c2n1)c1ccc(C(=O)N[C@@H](CCC(=O)O)C(=O)O)cc1` [MTX] here?
A: 112 µM

Q: And the IC50 (NMNAT1−/− RPE-1 cells)?
A: 8.8 µM

Q: And the “sensitivity of NMNAT1−/− cells relative to WT cells” value (NMNAT1−/− RPE-1 cells)?
A: more sensitive than WT cells

Q: And the “Fold change (WT/NMNAT1−/−)” value (NMNAT1−/− RPE-1 cells)?
A: 12.75

Q: How did the “survival of parental HRP cells” value (WT RPE-1 cells; parental HRP RPE-1 cells, indicated doses) turn out when `O=C(Nc1ccc(O)c(C(=O)O)c1)c1cccc(NC(=O)c2ccco2)c1` [OSS_128167] was run?
A: no effect on the survival

Q: And the clonogenic ability ([1]; BRCA2−/− RPE-1 cells, indicated doses)?
A: impaired the clonogenic ability

Q: What about the clonogenic formation [2] of the same molecule?
A: killed the PARPi-resistant BRCA2−/− RPE-1 cells to a similar extent than the parental drug-naïve cells

Q: And the clonogenic formation [3]?
A: resulted in cell death

Q: And the clonogenic ability (MCF10A cells)?
A: did not affect the clonogenic ability

Q: For `OO` [H202], which IC50 (WT RPE-1 cells) is on record?
A: 22.8 µM

Q: And the IC50 (NMNAT1−/− RPE-1 cells)?
A: 22.1 µM

Q: And the “Fold change (WT/NMNAT1−/−)” value (NMNAT1−/− RPE-1 cells)?
A: 1.03

Q: How did the IC50 (WT RPE-1 cells) turn out when `COS(C)(=O)=O` [MMS] was run?
A: 242 µM

Q: And the IC50 (NMNAT1−/− RPE-1 cells)?
A: 130 µM

Q: And the “Fold change (WT/NMNAT1−/−)” value (NMNAT1−/− RPE-1 cells)?
A: 1.86

Q: For `C[C@@H](NS(=O)(=O)CCCOCn1ccc(=O)[nH]c1=O)c1cccc(OC2CCCC2)c1` [TAS-114], which “survival upon pharmacological inhibition of DUT” value (NMNAT1−/− RPE-1 cells; 24-hour exposure) is on record?
A: decreased survival

Q: What about the “sensitivity of BRCA2−/− cells upon UNG depletion” value ([1]; siUNG, 1 μM TAS-114, rescued by knockdown of SMUG1) of the same molecule?
A: sensitized

Q: And the “DSB formation (γH2AX foci)” value [4]?
A: triggered DNA double-strand break (DSB) formation exclusively during DNA replication

Q: With `NC(=O)NO` [HU, hydroxyurea] as the molecule, how does the IC50 (WT RPE-1 cells) read?
A: 1570 µM

Q: And the IC50 (NMNAT1−/− RPE-1 cells)?
A: 637 µM

Q: And the “Fold change (WT/NMNAT1−/−)” value (NMNAT1−/− RPE-1 cells)?
A: 2.46

Q: How did the IC50 (WT RPE-1 cells; Homo sapiens, RPE-1) turn out when `O=c1[nH]c(=O)n([C@H]2C[C@H](O)[C@@H](CO)O2)cc1F` [FDURD, 5-fluorodeoxyuridine] was run?
A: 51.6 µM

Q: And the IC50 (NMNAT1−/− RPE-1 cells; Homo sapiens, RPE-1)?
A: 17.7 µM

Q: And the “sensitivity of NMNAT1−/− cells relative to WT cells” value (NMNAT1−/− RPE-1 cells)?
A: more sensitive than WT cells

Q: And the “Fold change (WT/NMNAT1−/−)” value (NMNAT1−/− RPE-1 cells)?
A: 2.92

B1: UGI: peptide inhibitor of UNG, delivered by retroviral particles (protein, UniProt P14739 1-84, looked up)
Uracil-DNA glycosylase …: MTNLSDIIEKETGKQLVIQESILMLPEEVEEVIGNKPESDILVHTAYDESTDENVMLLTSDAPEYKPWALVIQDSNGENKIKML
Q: How did the “clonogenic survival upon UNG inhibition” value ([1]; retroviral particles carrying UGI, versus WT cells) turn out when B1 was run?
A: selectively kills
